The record followed here is patent publication US11453897B2, “Method for producing aminobenzoic acid or an aminobenzoic acid derivative product” (Covestro Intellectual Property GmbH & Co. KG, priority 2018, dated 2022).

The nature of this data set: Dissolution of calcium ortho-aminobenzoate by salt exchange with ammonium ions (ammonium carbonate stock solution). The data set is classed as physicochemical. The procedure: 48.0 g of anhydrous calcium chloride was added to 1.00 L of fermentation broth. The pH was adjusted to a value of 7.0 by adding hydrochloric acid. 100 g of ortho-aminobenzoic acid (dissolved in sodium hydroxide solution at pH 7.0) was then added to this mixture by adding 200 mL of oAB STOCK SOLUTION. There was briefly precipitation of calcium ortho-aminobenzoate. The concentration of dissolved ortho-aminobenzoic acid measured in the aqueous phase was 18.0 g/L. The solids fraction of the mixture was filtered off and dried at 80° C. for 48 h. In this way, 110 g of dried solid material was obtained. 20.0 g of that was added to 50.0 mL of AMMONIUM STOCK SOLUTION 1, the mixture was stirred and the concentration of dissolved ortho-aminobenzoic acid was determined. The latter was 146 g/L.
48.0 g of anhydrous calcium chloride was added to 800 mL of water. The pH was adjusted to a value of 7.0 by adding hydrochloric acid. […] The concentration of dissolved ortho-aminobenzoic acid measured in the aqueous phase was 18.0 g/L. The solids fraction of the mixture was filtered off and dried at 80° C. for 48 h. […] 20.0 g of that was added to 25.0 mL of AMMONIUM STOCK SOLUTION 2, the mixture was stirred and the concentration of dissolved ortho-aminobenzoic acid was determined.

On to calcium ortho-aminobenzoate, for which the “concentration of dissolved ortho-aminobenzoic acid after salt exchange” value (20.0 g dried solid in 25.0 mL ammonium carbonate 210 g/L (Example 2)) was 175 g/L and the “concentration of dissolved ortho-aminobenzoic acid after salt exchange” value (20.0 g dried solid in 50.0 mL ammonium carbonate 105 g/L (Example 1)) amounted to 146 g/L.
